Reference: patent US8399521B2, “Methods of treating skin with aromatic skin-active ingredients” (Mary Kay Inc., priority 2008, dated 2013)

Assays:
[1] = molecular target: T1, COX-2 (Ovis aries, UniProt P79208); assay: Colorimetric COX (ovine) inhibitor screening assay, COX-2; assay type: biochemical; conditions: 0.001% test compound, Table 3; for Cox-2 Inhibition (0.001%): negative = inhibition vs non-treated control; for inhibition at 0.001 %: 0.25 h
T1 construct: purchased Cayman Chemical 760111
T1 sequence (P79208 17-603): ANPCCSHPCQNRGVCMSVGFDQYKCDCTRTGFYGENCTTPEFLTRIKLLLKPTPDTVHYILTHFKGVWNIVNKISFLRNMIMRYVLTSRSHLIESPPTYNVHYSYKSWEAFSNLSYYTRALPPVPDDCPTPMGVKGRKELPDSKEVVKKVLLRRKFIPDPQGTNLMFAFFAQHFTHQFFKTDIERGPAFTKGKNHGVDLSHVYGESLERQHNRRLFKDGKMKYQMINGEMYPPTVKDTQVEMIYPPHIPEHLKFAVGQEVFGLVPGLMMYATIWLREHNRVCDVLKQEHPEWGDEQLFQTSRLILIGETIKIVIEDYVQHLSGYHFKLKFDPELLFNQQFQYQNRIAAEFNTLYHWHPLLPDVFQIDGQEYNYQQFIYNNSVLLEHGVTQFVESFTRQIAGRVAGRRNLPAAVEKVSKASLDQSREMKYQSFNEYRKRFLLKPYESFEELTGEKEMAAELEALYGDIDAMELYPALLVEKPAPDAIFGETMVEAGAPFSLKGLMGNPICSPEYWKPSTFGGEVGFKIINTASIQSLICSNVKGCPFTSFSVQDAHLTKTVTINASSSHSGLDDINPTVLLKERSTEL
Excerpt: Cyclooxygenase (COX) assay: An in vitro cyclooxygenase-1 and -2 (COX-1, -2) inhibition assay. […] The cyclooxygenase activity converts arachidonic acid to a hydroperoxy endoperoxide (Prostaglandin G2; PGG2) and the peroxidase component reduces the endoperoxide (Prostaglandin H2; PGH2) to the corresponding alcohol, the precursor of prostaglandins, thromboxanes, and prostacyclins. This COX Inhibitor Screening Assay measures the peroxidase component of cyclooxygenases. The peroxidase activity is assayed colorimetrically by monitoring the appearance of oxidized N,N,N′,N′-tetramethyl-p-phenylenediamine (TMPD). This inhibitor screening assay includes both COX-1 and COX-2 enzymes in order to screen isozyme-specific inhibitors.
Following manufacturer instructions for the Colormetric COX (ovine) Inhibitor screening assay (#760111, Cayman Chemical), purified cyclooxygnase enzyme (COX-1 or COX-2), heme and test compounds were mixed in assay buffer and incubated with shaking for 15 min at room temperature. Following incubation, arachidonic acid and colorimetric substrate were added to initiate the reaction and incubated for an additional 15 min at room temperature with shaking. Color progression was evaluated by fluoresecence plate reading at 590 nm. The percent inhibition of COX-1 or COX-2 activity was calculated compared to non-treated controls to determine the ability of test compounds to inhibit the activity of purified enzyme.

[2] = molecular target: T2, MMP9 (Homo sapiens, UniProt P14780); assay: Matrix metalloproteinase enzyme activity assay, MMP9; assay type: biochemical; conditions: for MMP9 Inhibition (0.01%) / inhibition at 0.01 %: 0.01% test compound, Table 3; for MMP9 Inhibition (0.01%) / MMP9 Inhibition (0.001%): negative = inhibition vs diluent control; for MMP9 Inhibition (0.001%): 0.001% test compound, Table 2
T2 construct: purchased BioMol International AK-410
T2 sequence (P14780 107-444 limits assumed): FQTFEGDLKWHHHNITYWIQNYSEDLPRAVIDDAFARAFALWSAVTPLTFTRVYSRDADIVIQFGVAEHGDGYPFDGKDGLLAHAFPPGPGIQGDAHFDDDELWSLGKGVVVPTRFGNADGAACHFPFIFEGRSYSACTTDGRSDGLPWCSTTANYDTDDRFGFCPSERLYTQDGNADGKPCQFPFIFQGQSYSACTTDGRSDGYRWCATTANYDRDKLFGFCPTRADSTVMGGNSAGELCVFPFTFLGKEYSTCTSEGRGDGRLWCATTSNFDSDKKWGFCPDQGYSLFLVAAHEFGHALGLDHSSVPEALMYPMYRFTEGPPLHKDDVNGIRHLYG
Excerpt: Matrix metalloproteinase enzyme activity (MMP3; MMP9) assay: An in vitro matrix metalloprotease (MMP) inhibition assay. MMPs are extracellular proteases that play a role in many normal and disease states by virtue of their broad substrate specificity. MMP3 substrates include collagens, fibronectins, and laminin; while MMP9 substrates include collagen VII, fibronectins and laminin. Using Colorimetric Drug Discovery kits from BioMol International for MMP3 (AK-400) and MMP-9 (AK-410), this assay is designed to measure protease activity of MMPs using a thiopeptide as a chromogenic substrate (Ac-PLG-[2-mercapto-4-methyl-pentanoyl]-LG-OC2H5)5,6. The MMP cleavage site peptide bond is replaced by a thioester bond in the thiopeptide. Hydrolysis of this bond by an MMP produces a sulfhydryl group, which reacts with DTNB [5,5′-dithiobis(2-nitrobenzoic acid), Ellman's reagent] to form 2-nitro-5-thiobenzoic acid, which can be detected by its absorbance at 412 nm (ε=13,600 M-1 cm-1 at pH 6.0 and above 7). Data is reflected as % inhibition of the purified enzyme activity.

Molecule | inhibition at 0.001 % [1] | inhibition at 0.01 % [2] | also measured
(2,4,6-)trimethyl-3-cyclohexene-1-carboxaldehyde and (3,5,6-)trimethyl-3-cyclohexene-1-carboxaldehyde [Iso Cyclo Citral] |  |  | Cox-2 Inhibition (0.001%) [1]: −31.58%; MMP9 Inhibition (0.01%) [2]: −21.78%
1-(1,2,3,4,5,6,7,8-octahydro-2,3,8,8-tetramethyl-2-naphthalenyl)ethan-1-one; 1-(2,3,8,8-tetramethyl-1,2,3,5,6,7,8,8a-octahydronaphthalen-2-yl)ethanone; and 1-(2,3,8,8-tetramethyl-1,2,3,4,6,7,8,8a-octahydronaphthalen-2-yl)ethanone [Iso E super] |  |  | Cox-2 Inhibition (0.001%) [1]: −20.80%
CC/C=C(\C)C(O)CCCCC (stereo not drawn) [4-methyl-3-decen-5-ol] |  | 28.1% | 
CCCCCCCCC/C=C/C=O [2-dodecenal (E)] |  |  | MMP9 Inhibition (0.001%) [2]: −24.98%
3-hexen-1-ol (E) and (Z) |  |  | Cox-2 Inhibition (0.001%) [1]: −23.56%; MMP9 Inhibition (0.01%) [2]: −23.82%
CC/C=C\CCCCC=O [Cis-6-Nonenal, cis-6-nonenal] | 27.1% | 19.2% | 
CCCCCC1CCC(=O)O1 (stereo not drawn) [Aldehyde C-18, 5-pentyldihydrofuran-2(3H)-one] | 22.6% | 22.2% | 
CC(=O)/C=C/C1=C(C)CCCC1(C)C [Beta Ionone, (3E)-4-(2,6,6-trimethylcyclohex-1-en-1-yl)but-3-en-2-one] |  |  | MMP9 Inhibition (0.001%) [2]: −19.82%
CCCCCCCCCCCC=O [Aldehyde C-12 Lauric, 1-dodecanal] |  |  | MMP9 Inhibition (0.001%) [2]: −27.64%

Continued, in another order:

inhibition at 0.001 % [1] | inhibition at 0.01 % [2] | Molecule | also measured
36.1% |  | CC1=CCC(/C=C/C(C)(C)C(C)O)C1(C)C (stereo not drawn) [Polysantol, 3,3-dimethyl-5(2,2,3-trimethyl-3-cyclopenten-1-yl)-4-penten-2-ol] | 
20.6% | 33% | O=C1CCCCCCCCCCCC(=O)OCCO1 [Ethylene Brassylate, 1,4-dioxacycloheptadecane-5,17-dione] | 
 | 22% | CCC/C=C\COC(C)=O [Leaf Acetate, cis-2-hexenyl acetate] | 
22.3% |  | CCC/C(CC(=O)CC)=N/O [Stemone, (Z)-5-(hydroxyimino)octan-3-one] | 
23.3% |  | C=C1CCCC(C)(C)C1C(=O)OC (stereo not drawn) [Romascone ®, methyl 2,2-dimethyl-6-methylenecyclohexanecarboxylate] | 
25.1% | 26.8% | CCOC(=O)C1C2C=CC(C2)C1C(C)C (stereo not drawn) [Herbanante, ethyl 3-isopropylbicyclo[2.2.1]hept-5-ene-2-carboxylate] | 
